According to patent US20060029544A1, “Receptor-binding cyclic peptides and methods of use” (The Regents of the University of California Office of …, priority 2004, published 2006):

Assays:
αvβ5 integrin = target: T1, αvβ5 integrin (Homo sapiens, UniProt P06756+P18084); experiment: ELISA: biotinylated vitronectin binding to captured soluble αvβ5-mFc in the presence of RGD peptides; conditions: 20 μM peptide; 100% = signal without peptide
T1 construct: chimeras comprising the extracellular domain of αvβ3, αvβ5, α5β1, and αIIbβ3 linked to the Fc domain of either mouse IgG; purchased Celltech plc (supplied, no catalogue number); host or cells: unpurified hybridoma / tissue culture supernatant from secreting cells
T1 sequence (P06756 31-992 limits assumed): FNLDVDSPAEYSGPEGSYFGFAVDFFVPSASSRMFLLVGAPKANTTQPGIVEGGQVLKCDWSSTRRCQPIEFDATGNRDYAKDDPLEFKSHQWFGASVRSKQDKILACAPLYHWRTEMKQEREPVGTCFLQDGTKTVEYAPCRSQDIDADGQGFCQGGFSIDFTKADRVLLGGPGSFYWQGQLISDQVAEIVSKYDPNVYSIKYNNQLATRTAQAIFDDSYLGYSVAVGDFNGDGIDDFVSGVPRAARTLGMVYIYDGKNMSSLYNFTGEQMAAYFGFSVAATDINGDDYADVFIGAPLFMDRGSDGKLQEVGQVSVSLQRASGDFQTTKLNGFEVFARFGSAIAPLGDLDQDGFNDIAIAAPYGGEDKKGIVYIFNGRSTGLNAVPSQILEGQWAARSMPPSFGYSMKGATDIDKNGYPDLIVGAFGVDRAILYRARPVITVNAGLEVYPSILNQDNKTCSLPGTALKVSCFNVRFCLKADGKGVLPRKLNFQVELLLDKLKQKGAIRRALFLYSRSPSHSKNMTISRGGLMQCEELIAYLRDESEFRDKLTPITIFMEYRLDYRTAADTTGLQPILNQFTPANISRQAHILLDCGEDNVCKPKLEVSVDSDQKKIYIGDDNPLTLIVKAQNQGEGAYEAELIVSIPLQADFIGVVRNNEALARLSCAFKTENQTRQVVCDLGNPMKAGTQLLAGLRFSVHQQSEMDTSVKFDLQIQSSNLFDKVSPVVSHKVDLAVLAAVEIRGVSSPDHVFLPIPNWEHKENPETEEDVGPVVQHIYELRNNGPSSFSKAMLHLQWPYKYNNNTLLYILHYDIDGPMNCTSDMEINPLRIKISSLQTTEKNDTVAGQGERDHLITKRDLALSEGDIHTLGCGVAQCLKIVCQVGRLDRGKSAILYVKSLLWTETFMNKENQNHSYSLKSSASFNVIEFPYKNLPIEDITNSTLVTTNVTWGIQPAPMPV
T1 sequence (P18084 24-719 limits assumed): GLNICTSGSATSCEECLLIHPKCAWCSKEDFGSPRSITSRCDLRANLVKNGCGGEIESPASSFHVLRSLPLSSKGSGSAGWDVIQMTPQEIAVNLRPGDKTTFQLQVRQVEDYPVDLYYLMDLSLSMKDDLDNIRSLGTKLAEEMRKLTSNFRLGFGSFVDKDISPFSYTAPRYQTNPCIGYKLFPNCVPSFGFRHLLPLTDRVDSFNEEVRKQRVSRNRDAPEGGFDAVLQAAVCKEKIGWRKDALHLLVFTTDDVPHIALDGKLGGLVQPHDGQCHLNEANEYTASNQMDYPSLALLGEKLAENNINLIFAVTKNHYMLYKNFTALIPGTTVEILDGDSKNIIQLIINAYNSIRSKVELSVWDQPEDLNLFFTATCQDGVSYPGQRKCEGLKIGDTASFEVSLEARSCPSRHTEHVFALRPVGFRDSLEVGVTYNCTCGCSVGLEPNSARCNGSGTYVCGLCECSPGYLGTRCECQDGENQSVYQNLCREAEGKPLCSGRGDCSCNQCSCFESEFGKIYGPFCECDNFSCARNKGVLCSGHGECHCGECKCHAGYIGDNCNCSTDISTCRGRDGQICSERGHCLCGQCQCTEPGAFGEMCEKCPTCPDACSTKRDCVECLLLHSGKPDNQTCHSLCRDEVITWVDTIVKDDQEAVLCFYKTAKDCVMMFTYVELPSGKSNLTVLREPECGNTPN
Excerpt: (§1) Four different soluble integrins were supplied by Celltech plc. Soluble forms of αvβ3, αvβ5, α5β1, and αIIbβ3 integrin were generated by constructing chimeras comprising the extracellular domain of αvβ3, αvβ5, α5β1, and αIIbβ3 linked to the Fc domain of either mouse IgG (αvβ3-mFc, αvβ5-mFc, and αIIbβ3-mFc) or human IgG (α5β1-hFc) as described by Stephens et al., Cell Adhes. Commun., 7:377-390 (2000) and Coe et al., J. Biol. Chem., 276:35854-35866 (2001). Since the four soluble integrin chimeras were supplied either as purified proteins (αvβ3-mFc and α5β1-hFc) or as unpurified hybridoma supernatants (αIIbβ3-mFc and αvβ5-mFc), it was necessary to use two types of ELISAs. […] In one type of ELISA (FIGS. 2A and 2B), the immobilized component is a 50 kDa fragment of fibronectin. In the second type of ELISA (FIGS. 2C and 2D), the immobilized component is a goat anti-mFc antibody that is used to capture chimeric proteins so that the RGD binding site of the integrin is maximally exposed. Each three-sided box in FIG. 2 represents a single well of a 96-well plate, and the components are listed in the sequence of their addition to the assay. The immobilized component at the bottom of the well is bound to the well by electrostatic interactions.
To analyze the affinity and selectively of RGD peptides for αIIbβ3 and αvβ5, 96-well ELISA plates were coated with anti-murine Fc antibody at 5 μg/ml in PBS, 100 μl per well and left overnight at 4° C. The plates were washed with PBS using a Denley Wellwash 4 Mk 2. Washing was repeated twice with a 400 μl wash per well. 200 μl/well of blocking buffer was then added for 1 hour followed by a repeat washing with PBS. 100 μl of tissue culture supernatant from cells secreting soluble αIIbβ3-mFc or αvβ5-mFc, diluted 1:2 in conjugate buffer, was added to each well. Plates were incubated with shaking for 1 hour followed by two washes with PBS. 100 μl of an RGD peptide (at concentrations of 200, 20, and 2 μM), followed by either 100 μl of biotinylated fibrinogen (at 1 μg/ml in conjugate buffer) or 100 μl of biotinylated vitronectin (at 2 μg/ml in conjugate buffer) were added to each well and incubated for 2 hours with shaking. After incubation, the plates were washed with PBS as described above. 100 μl of neutravidin-peroxidase was added to each well and the plates were incubated for 30 minutes with shaking, followed by two washes with PBS. 100 μl of TMB substrate was added to each well and the plates were shaken during color development. Plates were read using a plate spectrophotometer at 630 nm.
(§2) Two negative and two positive controls were used in both types of ELISAs. For example, the negative controls were wells that contained 50 μl of an active control peptide, integrin, and biotinylated ligand or 50 μl of the active control peptide and 50 μl of buffer. These negative control wells typically develop little to no color. […] These wells typically develop the maximum amount of color.
(§3) FIGS. 3-6 illustrate the percent binding of the vitronectin, fibronectin, or fibrinogen ligand to αvβ5, α5β1, αIIbβ3, or αvβ3 integrin in the presence of RGD peptides (i.e., linear (A), cyclic (B), or 4-[^19F]-fluorobenzoyl cyclic (C)) at different concentrations, with 100% maximum signal being the signal obtained in the absence of the peptide.

α5β1 integrin = target: T2, α5β1 integrin (Homo sapiens, UniProt P05556+P08648); experiment: ELISA: soluble α5β1-hFc binding to immobilized 50 kDa fibronectin fragment in the presence of RGD peptides; conditions: 20 μM peptide
T2 construct: chimeras comprising the extracellular domain of αvβ3, αvβ5, α5β1, and αIIbβ3 linked to the Fc domain of either mouse IgG; purchased Celltech plc (supplied, no catalogue number)
T2 sequence (P08648 42-995 limits assumed): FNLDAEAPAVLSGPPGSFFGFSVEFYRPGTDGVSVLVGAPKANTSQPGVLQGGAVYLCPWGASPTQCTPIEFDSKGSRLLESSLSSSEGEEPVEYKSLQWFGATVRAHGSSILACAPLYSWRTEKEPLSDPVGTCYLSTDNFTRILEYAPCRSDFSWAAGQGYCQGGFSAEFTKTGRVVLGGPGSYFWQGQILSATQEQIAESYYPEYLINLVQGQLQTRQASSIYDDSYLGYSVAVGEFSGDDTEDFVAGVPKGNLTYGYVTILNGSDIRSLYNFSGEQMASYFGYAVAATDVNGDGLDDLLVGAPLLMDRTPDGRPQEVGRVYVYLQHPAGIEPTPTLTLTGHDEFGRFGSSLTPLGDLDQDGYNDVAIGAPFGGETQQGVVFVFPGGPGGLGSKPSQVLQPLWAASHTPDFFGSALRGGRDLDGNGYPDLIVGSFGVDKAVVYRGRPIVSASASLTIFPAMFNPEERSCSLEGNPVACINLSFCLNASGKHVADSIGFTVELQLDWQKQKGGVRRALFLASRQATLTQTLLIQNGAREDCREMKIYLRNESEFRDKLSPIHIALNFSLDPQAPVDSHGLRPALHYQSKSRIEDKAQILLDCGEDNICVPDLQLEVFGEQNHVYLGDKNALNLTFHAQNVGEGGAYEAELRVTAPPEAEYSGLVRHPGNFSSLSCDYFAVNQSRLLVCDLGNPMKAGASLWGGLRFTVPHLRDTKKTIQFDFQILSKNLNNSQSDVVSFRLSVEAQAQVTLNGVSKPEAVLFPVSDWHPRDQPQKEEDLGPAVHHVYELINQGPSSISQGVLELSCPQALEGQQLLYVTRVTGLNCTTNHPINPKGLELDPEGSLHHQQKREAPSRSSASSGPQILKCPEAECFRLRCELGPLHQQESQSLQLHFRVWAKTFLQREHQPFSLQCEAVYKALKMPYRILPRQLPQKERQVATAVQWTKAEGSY
T2 sequence (P05556 21-728 limits assumed): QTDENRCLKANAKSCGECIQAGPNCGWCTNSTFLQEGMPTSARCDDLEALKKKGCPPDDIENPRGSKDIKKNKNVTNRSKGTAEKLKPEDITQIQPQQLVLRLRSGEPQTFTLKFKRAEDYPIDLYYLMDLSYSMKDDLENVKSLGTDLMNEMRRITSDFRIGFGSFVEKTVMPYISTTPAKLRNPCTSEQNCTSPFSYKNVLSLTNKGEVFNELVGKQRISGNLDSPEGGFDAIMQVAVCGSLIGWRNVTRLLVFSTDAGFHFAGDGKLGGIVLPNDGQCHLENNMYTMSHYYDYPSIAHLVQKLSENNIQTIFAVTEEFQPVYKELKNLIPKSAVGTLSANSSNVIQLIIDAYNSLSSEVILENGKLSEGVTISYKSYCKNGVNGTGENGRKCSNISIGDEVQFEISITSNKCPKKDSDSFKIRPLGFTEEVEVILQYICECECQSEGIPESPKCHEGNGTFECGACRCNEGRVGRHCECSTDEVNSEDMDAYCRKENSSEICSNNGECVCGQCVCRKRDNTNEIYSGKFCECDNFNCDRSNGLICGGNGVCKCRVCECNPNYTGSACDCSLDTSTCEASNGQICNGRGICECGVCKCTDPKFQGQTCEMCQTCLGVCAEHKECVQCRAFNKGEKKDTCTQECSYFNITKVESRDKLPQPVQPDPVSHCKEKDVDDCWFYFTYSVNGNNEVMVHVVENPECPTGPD
Excerpt: as §1
To analyze the affinity and selectively of RGD peptides for αvβ3 and α5β1, 96-well ELISA plates were coated with 100 μl of a 5 μg/ml of the 50 kDa fragment of fibronectin in PBS per well and left overnight at 4° C. The plates were washed with PBS using a Denley Wellwash 4 Mk 2. Washing was repeated twice with a 400 μl wash per well. 200 μ/well of blocking buffer (i.e., to prevent non-specific binding of proteins) was then added for 1 hour followed by a repeat washing with PBS. RGD peptides were then added at a maximum concentration of 200 μM and a preliminary screen was performed at three concentrations, 200,20, and 2 μM. 100 μl of an RGD peptide was added to each well and each assay was performed in triplicate. Purified soluble αvβ3-mFc or purified α5β1-hFc was diluted to 2 μg/ml and 15 ng/ml, respectively, in conjugate buffer and 100 μl was added to each well. The plates were incubated for 2 hours with shaking using a Luckham R100 Rotatest at approximately 150 rpm. After incubation, the plates were washed with PBS as previously described and a labeled antibody was added. For the αvβ3 assay, a horseradish peroxidase (HRP)-labeled F(ab′)2 fragment of goat anti-mouse IgG Fc was diluted 1:2000 in conjugate buffer and 100 μl was added to each well. For the α5β1 assay, an HRP-labeled F(ab′)2 fragment of goat anti-human IgG Fc was diluted 1:2000 in conjugate buffer and 100 μl was added to each well. Plates were incubated for 30 minutes with shaking followed by 2 washes with PBS. 100 μl of TMB substrate was added to each well and plates were shaken during a 10 minute color development. Plates were read using a plate spectrophotometer at 630 nm.
as §2, §3

Substance: RGDY(OMe)K [B7]
- vitronectin binding to αvβ5, % of the maximum signal (αvβ5 integrin): 32.8%
- fibronectin binding to α5β1, % of the maximum signal (α5β1 integrin): 48.4%
